Where “and” joins values, the source holds several entries; their conditions need not be identical. Equal values may be shown once.
Test system: WM3248 melanoma cells, 486 antibodies
Experiment: Reverse phase protein arrays (RPPA)
Type: cell-based, Human
Text: Pellets were snap frozen in liquid nitrogen and shipped to MD Anderson Cancer Center core RPPA facility for RPPA analysis (Table S5). Three biological replicates for each sample were generated.
Nomenclatures on the RPPA heatmaps: name_of_antibody.species_of_antibody.status_of_antibody. V - antibody validated; C - validation of antibody in progress; Q - antibody nonspecific; E – under evaluation; antibodies raised in M - mouse, G - goat, R - rabbit, or T - rat.

CN(C)c1cccc(Nc2cc(-c3ccccc3)nc(C3CCNCC3)n2)c1 [ARN22089, N1,N1-dimethyl-N3-(6-phenyl-2-(piperidin-4-yl)pyrimidin-4-yl)benzene-1,3-diamine]
Merlin.R.C Norm_20 Average (level 20 vs 0): 1.326
Midkine.R.V Norm_20 Average (level 20 vs 0): 0.903
Mitofusin.1.R.V Norm_20 Average (level 20 vs 0): 0.924
Mitofusin.2.R.V Norm_20 Average (level 20 vs 0): 0.929
Mnk1.R.V Norm_20 Average (level 20 vs 0): 0.909
mTOR.R.V Norm_20 Average (level 20 vs 0): 0.966
mTOR_pS2448.R.C Norm_20 Average (level 20 vs 0): 0.981
HLA.DQA1.R.V Norm_20 (level 20 vs 0, replicates): 0.920
HLA.DR.DP.DQ.DX.R.C Norm_20 (level 20 vs 0, replicates): 1.294 and 1.162
HMHA1.R.V Norm_20 (level 20 vs 0, replicates): 0.981 and 0.880 and 1.188
HNRNPK.R.V Norm_20 (level 20 vs 0, replicates): 0.984 and 1.119 and 0.871
HSP27.M.C Norm_20 (level 20 vs 0, replicates): 0.670 and 0.856 and 0.906
HSP27_pS82.R.V Norm_20 (level 20 vs 0, replicates): 0.842 and 0.885 and 1.155
HSP60.R.V Norm_20 (level 20 vs 0, replicates): 1.130 and 0.832 and 1.026
HSP70.R.C Norm_20 (level 20 vs 0, replicates): 1.062 and 1.459
Hexokinase.I.R.C Norm_20 (level 20 vs 0, replicates): 1.110 and 1.189 and 1.305
Hexokinase.II.R.V Norm_20 (level 20 vs 0, replicates): 1.291 and 0.878 and 1.104
Hif.1αR.C Norm_20 (level 20 vs 0, replicates): 1.195 and 0.879 and 1.078
Histone.H3.R.V Norm_20 (level 20 vs 0, replicates): 1.827 and 15.369 and 0.615
Histone.H3_pS10.R.V Norm_20 (level 20 vs 0, replicates): 1.077 and 5.500 and 0.823
IDO.R.C Norm_20 (level 20 vs 0, replicates): 0.970 and 0.836
IGF1R_pY1135_Y1136.R.V Norm_20 (level 20 vs 0, replicates): 1.013 and 0.925
IGFBP2.R.V Norm_20 (level 20 vs 0, replicates): 1.100 and 0.958 and 1.153
IGFBP3.M.V Norm_20 (level 20 vs 0, replicates): 0.795 and 0.982
IGFRb.R.C Norm_20 (level 20 vs 0, replicates): 1.223 and 1.234
IL.6.R.C Norm_20 (level 20 vs 0, replicates): 0.955 (2×) and 1.003
IMP3.R.C Norm_20 (level 20 vs 0, replicates): 0.919 and 1.030 and 0.952
INPP4b.R.C Norm_20 (level 20 vs 0, replicates): 0.903 and 0.986
IR.b.R.C Norm_20 (level 20 vs 0, replicates): 1.018 and 0.967 and 1.220
IRF.1.R.V Norm_20 (level 20 vs 0, replicates): 0.991 and 0.831 and 1.052
IRF.3.R.V Norm_20 (level 20 vs 0, replicates): 0.860 and 0.878 and 0.910
IRS1.R.V Norm_20 (level 20 vs 0, replicates): 1.064 and 1.027 and 1.060
IRS2.R.C Norm_20 (level 20 vs 0, replicates): 1.529 and 1.065
JAB1.M.C Norm_20 (level 20 vs 0, replicates): 0.904 and 0.945 and 1.061
JNK2.R.V Norm_20 (level 20 vs 0, replicates): 0.750 and 1.506
JNK_pT183_Y185.R.C Norm_20 (level 20 vs 0, replicates): 1.059 and 0.941 and 1.008
Jagged1.R.V Norm_20 (level 20 vs 0, replicates): 1.035 and 0.964 and 1.085
Jak2.R.V Norm_20 (level 20 vs 0, replicates): 1.132 and 0.972 and 1.009
KAP1.R.V Norm_20 (level 20 vs 0, replicates): 1.259 and 0.970 and 1.549
KEAP1.R.V Norm_20 (level 20 vs 0, replicates): 1.169 and 0.932 and 0.897
LAD1.R.V Norm_20 (level 20 vs 0, replicates): 0.881 and 0.761 and 1.249
LC3A.B.R.C Norm_20 (level 20 vs 0, replicates): 1.429 and 1.134 and 1.161
LCN2.R.V Norm_20 (level 20 vs 0, replicates): 2.531 and 1.008 and 1.326
LDHA.R.C Norm_20 (level 20 vs 0, replicates): 0.857 and 1.499 and 2.319
LRP6_pS1490.R.V Norm_20 (level 20 vs 0, replicates): 1.001
Lasu1.R.V Norm_20 (level 20 vs 0, replicates): 1.199 and 1.294
Lck.R.V Norm_20 (level 20 vs 0, replicates): 1.370 and 1.163 and 1.379
Lyn.R.V Norm_20 (level 20 vs 0, replicates): 0.892 and 1.140 and 1.052
MACC1.R.V Norm_20 (level 20 vs 0, replicates): 0.920 and 0.933
MAPK_pT202_Y204.R.C Norm_20 (level 20 vs 0, replicates): 0.833 and 0.402 and 0.466
MCT4.R.V Norm_20 (level 20 vs 0, replicates): 1.030 and 0.799 and 1.149
MDM2_pS166.R.V Norm_20 (level 20 vs 0, replicates): 1.426 and 1.478 and 1.290
MEK1.R.V Norm_20 (level 20 vs 0, replicates): 1.117 and 2.580
MEK1_pS217_S221.R.V Norm_20 (level 20 vs 0, replicates): 0.743 and 0.841 and 1.347
MEK2.R.V Norm_20 (level 20 vs 0, replicates): 0.956 and 1.186
MERIT40.R.C Norm_20 (level 20 vs 0, replicates): 0.841 and 0.749 and 1.150
MERIT40_pS29.R.V Norm_20 (level 20 vs 0, replicates): 0.968 and 0.879 and 1.231
METTL3.R.V Norm_20 (level 20 vs 0, replicates): 1.164 and 1.324 and 1.250
MIF.R.C Norm_20 (level 20 vs 0, replicates): 0.869 and 0.900 and 0.906
MIG6.R.V Norm_20 (level 20 vs 0, replicates): 0.893 and 0.926 and 0.901
MITF.R.V Norm_20 (level 20 vs 0, replicates): 1.001 and 1.191 and 1.081
MLH1.M.V Norm_20 (level 20 vs 0, replicates): 0.708 and 0.840 and 1.119
MLKL.R.V Norm_20 (level 20 vs 0, replicates): 0.758 and 0.733
MMP2.R.V Norm_20 (level 20 vs 0, replicates): 0.895 and 0.974 and 0.934
MMP14.R.V Norm_20 (level 20 vs 0, replicates): 1.924 and 1.667 and 1.374
MR1.M.C Norm_20 (level 20 vs 0, replicates): 0.871 and 1.118 and 0.973
MRAP.R.C Norm_20 (level 20 vs 0, replicates): 1.035 and 1.214 and 1.082
MSH2.R.C Norm_20 (level 20 vs 0, replicates): 0.839 and 0.919 and 1.059
MSH6.R.C Norm_20 (level 20 vs 0, replicates): 1.343 and 1.387 and 1.258
MSI2.R.C Norm_20 (level 20 vs 0, replicates): 1.362 and 1.019
MTCO1.M.V Norm_20 (level 20 vs 0, replicates): 1.305 and 0.956 and 1.145
MTSS1.M.C Norm_20 (level 20 vs 0, replicates): 0.841 and 1.006 and 0.964
Mcl.1.R.V Norm_20 (level 20 vs 0, replicates): 0.748 and 0.609 and 0.905
MelanA.R.C Norm_20 (level 20 vs 0, replicates): 1.030 and 0.993 and 1.051
Melanoma.gp100.R.C Norm_20 (level 20 vs 0, replicates): 1.080 and 0.890
Merlin.R.C Norm_20 (level 20 vs 0, replicates): 1.344 and 1.329 and 1.306
Midkine.R.V Norm_20 (level 20 vs 0, replicates): 0.858 and 0.901
Mitofusin.1.R.V Norm_20 (level 20 vs 0, replicates): 0.931 and 0.783 and 1.058
Mitofusin.2.R.V Norm_20 (level 20 vs 0, replicates): 0.808 and 0.772 and 1.206
Mnk1.R.V Norm_20 (level 20 vs 0, replicates): 0.936 and 0.820 and 0.972
mTOR.R.V Norm_20 (level 20 vs 0, replicates): 0.878 and 0.940 and 1.079
mTOR_pS2448.R.C Norm_20 (level 20 vs 0, replicates): 0.856 and 0.896 and 1.190

Source: PMC9127750, “Structure-based design of CDC42 effector interaction inhibitors for the treatment of cancer” (Cell reports, 2022)
